Experimental data published in publication PMC6748385 (Toxicology and applied pharmacology, 2019).
Like-named read-outs stand apart in the source and are kept apart here.

Columns and labels:
Assay in all cases: ERE-luciferase transactivation, HELN-zfER cells
Format in all cases: cell-based
zfERβ2 (Esr2a) = zfERβ2 (Esr2a) (Danio rerio, UniProt Q7ZU32)
zfERβ1 (Esr2b) = molecular target: T1, zfERβ1 (Esr2b) (Danio rerio, UniProt Q5PR29)
T1 sequence (Q5PR29 1-592): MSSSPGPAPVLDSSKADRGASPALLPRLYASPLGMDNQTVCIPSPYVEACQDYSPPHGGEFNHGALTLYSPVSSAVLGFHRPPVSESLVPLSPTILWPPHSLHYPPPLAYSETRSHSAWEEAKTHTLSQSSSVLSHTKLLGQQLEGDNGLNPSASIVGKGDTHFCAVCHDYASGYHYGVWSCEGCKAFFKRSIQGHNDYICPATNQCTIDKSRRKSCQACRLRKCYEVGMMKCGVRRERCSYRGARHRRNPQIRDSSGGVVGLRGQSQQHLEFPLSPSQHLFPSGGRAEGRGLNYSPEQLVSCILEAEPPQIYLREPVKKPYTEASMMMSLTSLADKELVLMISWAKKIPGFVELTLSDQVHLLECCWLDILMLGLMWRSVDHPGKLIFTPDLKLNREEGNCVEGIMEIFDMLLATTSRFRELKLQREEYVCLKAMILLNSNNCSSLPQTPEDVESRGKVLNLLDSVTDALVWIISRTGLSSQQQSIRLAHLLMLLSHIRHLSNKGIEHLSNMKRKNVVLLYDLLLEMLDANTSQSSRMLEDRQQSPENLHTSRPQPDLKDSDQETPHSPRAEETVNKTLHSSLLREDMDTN

zfERα (Esr1) = molecular target: T2, zfERα (Esr1) (Danio rerio, UniProt P57717)
T2 sequence (P57717 1-569): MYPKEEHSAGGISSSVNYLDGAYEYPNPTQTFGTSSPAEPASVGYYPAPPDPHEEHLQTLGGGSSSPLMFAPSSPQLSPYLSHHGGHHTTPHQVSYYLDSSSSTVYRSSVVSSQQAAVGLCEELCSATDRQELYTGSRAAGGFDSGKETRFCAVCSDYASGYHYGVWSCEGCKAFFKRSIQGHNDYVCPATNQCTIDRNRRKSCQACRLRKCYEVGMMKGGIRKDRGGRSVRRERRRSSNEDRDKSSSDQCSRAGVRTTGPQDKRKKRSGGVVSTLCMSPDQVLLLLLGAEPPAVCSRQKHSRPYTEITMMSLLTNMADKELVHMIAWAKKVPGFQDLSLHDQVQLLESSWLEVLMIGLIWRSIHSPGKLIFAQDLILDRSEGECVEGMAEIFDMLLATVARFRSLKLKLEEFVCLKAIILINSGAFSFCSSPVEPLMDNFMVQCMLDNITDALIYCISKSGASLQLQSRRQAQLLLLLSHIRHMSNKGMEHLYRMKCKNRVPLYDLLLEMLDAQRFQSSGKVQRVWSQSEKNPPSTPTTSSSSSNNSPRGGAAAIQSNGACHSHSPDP

zfERβ2 (Esr2a), sequence (Q7ZU32 1-553): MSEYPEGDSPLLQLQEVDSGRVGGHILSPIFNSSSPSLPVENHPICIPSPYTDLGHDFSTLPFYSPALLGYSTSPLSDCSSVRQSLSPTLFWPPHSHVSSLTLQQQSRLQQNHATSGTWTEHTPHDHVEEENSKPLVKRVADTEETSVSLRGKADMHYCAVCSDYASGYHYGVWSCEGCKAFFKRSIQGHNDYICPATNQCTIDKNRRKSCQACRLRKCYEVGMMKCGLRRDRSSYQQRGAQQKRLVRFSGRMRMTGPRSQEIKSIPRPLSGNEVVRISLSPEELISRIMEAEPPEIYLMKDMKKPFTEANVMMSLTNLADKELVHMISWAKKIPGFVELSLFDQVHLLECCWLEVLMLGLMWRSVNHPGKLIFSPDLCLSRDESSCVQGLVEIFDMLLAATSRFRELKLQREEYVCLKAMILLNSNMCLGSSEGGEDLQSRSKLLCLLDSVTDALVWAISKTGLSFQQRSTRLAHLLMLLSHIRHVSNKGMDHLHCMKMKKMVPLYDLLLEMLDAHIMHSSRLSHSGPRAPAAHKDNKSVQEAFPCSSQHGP

SMILES: C[C@]12CC[C@@H]3c4ccc(O)cc4CC[C@H]3[C@@H]1C[C@H]1OC(=O)C[C@]12O [16α-LE2, 3,17-Dihydroxy-19-nor-17α-pregna-1,3,5(10)-triene-21,16α-lactone]
- EC50 (zfERβ2 (Esr2a)): 0.0695 ± 0.0175 µM
- EC50 (zfERβ1 (Esr2b)): 0.271 ± 0.045 µM
- EC50 (zfERα (Esr1)): 0.00065 ± 0.0001 µM

SMILES: CC(C)(c1ccc(O)cc1)c1ccc(O)cc1 [BPA]
- EC50 (zfERβ2 (Esr2a)): 2.8 ± 0.562 µM
- EC50 (zfERβ1 (Esr2b)): 3.33 ± 0.381 µM
- EC50 (zfERα (Esr1)): 0.469 ± 0.042 µM

SMILES: Oc1ccc(C(c2ccc(O)cc2)(C(F)(F)F)C(F)(F)F)cc1 [BPAF]
- EC50 (zfERβ2 (Esr2a); read-out: zfERβ2, agonist mode, 16 h, 28°C): 0.897 ± 0.268 µM
- EC50 (zfERβ1 (Esr2b); read-out: zfERβ1, agonist mode, 16 h, 28°C): 0.758 ± 0.131 µM
- EC50 (zfERα (Esr1); read-out: zfERα, agonist mode, 16 h, 28°C): 0.084 ± 0.027 µM
